# Counter-ions that a name gives are not always drawn. Like-named read-outs stand apart in the source and are kept apart here.
# Assays:
# [1] = molecular target: T1, Human recombinant trypsin (Homo sapiens, UniProt P07477); experiment: Human trypsin inhibition test; type: biochemical; conditions: 20 minutes after reaction start, read-out: Inhibition rate (trypsin); for inhibition at 0.001 µM: compound concentration 1 nM; for inhibition at 0.01 µM: compound concentration 10 nM; for inhibition at 0.1 µM: compound concentration 100 nM
# T1 construct: purchased Wako Pure Chemical Industries, Ltd. 206-17171
# Method: (Test Example 2): Human Trypsin Inhibition Test
# Human recombinant trypsin (manufactured by Wako Pure Chemical Industries, Ltd., code no.: 206-17171) was diluted with an assay buffer (0.1 M Tris-HCl (pH8.0), 0.15 M NaCl, 10 mM CaCl2, 0.05% Brij35) to prepare a 10 ng/mL enzyme solution. Then, Boc-Phe-Ser-Arg-MCA (manufactured by PEPTIDE INSTITUTE, INC., code no.: 3107-v) was diluted with the assay buffer to prepare a 40 μM substrate solution. Each test compound was dissolved into DMSO, then diluted with the assay buffer 100 times, and further appropriately diluted with an assay buffer comprising 1% DMSO to prepare each compound solution. 10 μL of the compound solution, 15 μL of the assay buffer, and 50 μL of the substrate solution were added to a 96 well black plate (manufactured by Thermo Fisher Scientific Inc., code no.: 9502867), mixed, and then 25 μL of the enzyme solution was added thereto, and mixed to start the reaction. Fluorescence intensities at excitation wavelength 355 nm and fluorescence wavelength of 460 nm were measured by using a fluorescence plate reader (Flex station 3) (Test compound addition group). Also, the same reaction as described above except for not adding each test compound was carried out (Test compound non-addition group). Additionally, the same reaction as described above except for not adding each test compound and the enzyme was carried out (Control group). Inhibition rate was calculated by the following equation using fluorescence intensity after 20 minutes of reaction start. Inhibition rate (%)=(1−(fluorescence intensity of Test compound addition group−fluorescence intensity of Control group)[…](fluorescence intensity of Test compound non-addition group−fluorescence intensity of Control group))×100
# HFD-fed mouse = experiment: Fecal protein concentration-increasing test by single administration using HFD-fed mouse; type: in vivo; conditions: 24 h, HFD-fed mice, vs vehicle group, read-out: Ratio for an increase of protein concentration in feces; for response vs control in vivo at 30 mg/kg: single oral dose 30 mg/kg
# Excerpt: (Test Example 3): Fecal Protein Concentration-Increasing Test by Single Administration Using HFD-Fed Mouse
# High fat diet-fed (HFD-fed) mice (D-12492 diet, male, ICR, 6 week old) were orally administered with a 0.5 W/V % methylcellulose suspension comprising each test compound (Compound administration group, 4 or 5 mice/group) or a 0.5 W/V % methylcellulose suspension (Compound non-administration group (Vehicle group), 5, 6, or 7 mice/group), and whole feces of the day were collected. Dried feces were dissolved into a 0.5N aqueous sodium hydroxide solution, followed by centrifugation at 3500 rpm. Then each protein concentration in the resulting supernatant was determined (Lowry method), and the ratio for an increase of protein concentration in feces was calculated by the following equation using the protein concentration in feces contained in 1 g of feces (mg/g feces). Ratio for an increase of protein concentration in feces−(average protein concentration in feces of Compound administration group)[…](average protein concentration in feces of Compound non-administration group)
# [2] = molecular target: T2, Human recombinant enteropeptidase (Homo sapiens, UniProt P98073); experiment: Human enteropeptidase inhibition test; type: biochemical; conditions: read-out: Inhibition rate (enteropeptidase); for inhibition at 0.001 µM: compound concentration 1 nM
# T2 construct: purchased BIO Vision Inc. 7529-50
# T2 sequence (P98073 whole entry): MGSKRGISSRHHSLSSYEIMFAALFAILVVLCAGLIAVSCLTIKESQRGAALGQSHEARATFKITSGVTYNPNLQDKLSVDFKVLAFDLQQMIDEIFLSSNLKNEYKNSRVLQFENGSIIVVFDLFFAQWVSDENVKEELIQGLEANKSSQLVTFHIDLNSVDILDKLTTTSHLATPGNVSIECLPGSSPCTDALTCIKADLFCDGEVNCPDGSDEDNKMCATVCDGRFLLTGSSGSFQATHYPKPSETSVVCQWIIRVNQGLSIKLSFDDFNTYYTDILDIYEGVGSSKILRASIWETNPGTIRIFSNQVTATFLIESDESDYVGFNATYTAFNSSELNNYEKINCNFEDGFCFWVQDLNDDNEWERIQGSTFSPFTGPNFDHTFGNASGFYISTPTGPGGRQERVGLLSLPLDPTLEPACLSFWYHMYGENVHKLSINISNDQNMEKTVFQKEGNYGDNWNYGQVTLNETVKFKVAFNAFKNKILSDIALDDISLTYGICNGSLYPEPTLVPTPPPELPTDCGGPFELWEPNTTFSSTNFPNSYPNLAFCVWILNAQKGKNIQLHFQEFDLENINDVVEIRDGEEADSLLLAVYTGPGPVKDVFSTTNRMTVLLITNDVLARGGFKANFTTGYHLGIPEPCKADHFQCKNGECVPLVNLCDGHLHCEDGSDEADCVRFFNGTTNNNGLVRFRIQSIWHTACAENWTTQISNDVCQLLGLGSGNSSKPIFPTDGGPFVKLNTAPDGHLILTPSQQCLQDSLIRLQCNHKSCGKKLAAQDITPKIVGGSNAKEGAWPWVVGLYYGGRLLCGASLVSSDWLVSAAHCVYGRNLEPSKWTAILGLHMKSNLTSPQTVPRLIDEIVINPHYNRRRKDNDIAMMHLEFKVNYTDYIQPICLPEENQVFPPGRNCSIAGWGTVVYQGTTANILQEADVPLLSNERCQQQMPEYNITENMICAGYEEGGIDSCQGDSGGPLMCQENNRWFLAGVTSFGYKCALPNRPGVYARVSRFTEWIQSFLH
# Method: (Test Example 1): Human Enteropeptidase Inhibition Test
# Human recombinant enteropeptidase (manufactured by BIO Vision Inc., catalog no.: 7529-50) was diluted with an assay buffer (50 mM tricine (pH8.0), 0.01 W/V % Tween 20, 10 mM CaCl2) to prepare an […] enzyme solution. Then, 5FAM-Abu-Gly-Asp-Asp-Lys-Ile-Val-Gly-Gly-Lys (CPQ2)-Lys-Lys-NH2 (manufactured by CHINESE PEPTIDE COMPANY, purity: 94.5) was diluted with the assay buffer to prepare a 1.5 μM substrate solution. Each test compound was dissolved into DMSO, then diluted with the assay buffer 100 times, and further appropriately diluted with an assay buffer comprising 1% DMSO to prepare each compound solution. 10 μL of the compound solution, 15 μL of the assay buffer, and 50 μL of the substrate solution were added to a 96 well black plate (manufactured by Thermo Fisher Scientific Inc., code no.: 9502867), mixed, then 25 μL of the enzyme solution was added thereto, and mixed to start the reaction. Fluorescence intensities at excitation wavelength 485 nm and fluorescence wavelength 535 nm were measured by using a fluorescence plate reader (Flex station 3) (Test compound addition group). Also, the same reaction as described above except for not adding each test compound was carried out (Test compound non-addition group). Additionally, the same reaction as described above except for not adding each test compound and the enzyme was carried out (Control group). Inhibition rate was calculated by the following equation using fluorescence intensity after 20 minutes of reaction start. Inhibition rate (%)=(1−(fluorescence intensity of Test compound addition group−fluorescence intensity of Control group)÷(fluorescence intensity of Test compound non-addition group−fluorescence intensity of Control group))×100
# DIO mouse = experiment: Anti-obesity effect test using DIO mouse; type: in vivo; conditions: 336 h, DIO mice, vs vehicle group, read-out: Weight loss rate; for inhibition in vivo at 25 mg/kg: oral 25 mg/kg once daily for 2 weeks
# Method: (Test Example 4): Anti-Obesity Effect Test Using DIO Mouse
# Diet-induced obesity (DIO) mice (D-12492 diet, male, C57BL-DIO, 26 to 28-week old) were orally administered with a 0.5 W/V % methylcellulose suspension comprising each test compound (Compound administration group, 5 or 6 mice/group) or a 0.5 W/V % methylcellulose suspension (Compound non-administration group (Vehicle group), 6 mice/group) once daily for 2 weeks. Weight loss rate was calculated by the following equation. Weight loss rate (%) of each Compound administration group−(1−average weight at the last day of the test of each Compound administration group/average weight at the last day of the test of Vehicle group)×100
# [3] = 20 minutes after reaction start
# [4] = compound concentration 10 nM, 20 minutes after reaction start
# [5] = compound concentration 100 nM, 20 minutes after reaction start
SMILES,inhibition at 0.001 µM [1] [%],inhibition at 0.01 µM [1] [%],inhibition at 0.1 µM [1] [%],response vs control in vivo at 86 mg/kg (HFD-fed mouse; single oral dose 86 mg/kg) [%],"inhibition at 0.001 µM [2, 3] [%]","inhibition at 0.01 µM [2, 4] [%]","inhibition at 0.1 µM [2, 5] [%]",response vs control in vivo at 30 mg/kg (HFD-fed mouse) [%],inhibition at 0.01 µM [2] [%],inhibition at 0.1 µM [2] [%],inhibition in vivo at 90 mg/kg (DIO mouse; oral 90 mg/kg once daily for 2 weeks) [%],response vs control in vivo at 89 mg/kg (HFD-fed mouse; single oral dose 89 mg/kg) [%],inhibition in vivo at 25 mg/kg (DIO mouse) [%]
"N=C(N)Nc1ccc(C(=O)Oc2ccc(CNS(=O)(=O)N(CCOCCOCCN([C@@H](CC(=O)O)C(=O)O)S(=O)(=O)NCc3ccc(OC(=O)c4ccc(NC(=N)N)cc4)cc3)[C@@H](CC(=O)O)C(=O)O)cc2)cc1 [2-(b), (2S,13S)-3,12-bis(N-(4-((4-guanidinobenzoyl)oxy)benzyl)sulfamoyl)-6,9-dioxa-3,12-diazatetradecane-1,2,13,14-tetracarboxylic acid trifluoroacetate]",≥ 50,≥ 50,≥ 50,≥ 130,≥ 50,≥ 50,≥ 50,–,–,–,–,–,–
"N=C(N)Nc1ccc(C(=O)Oc2ccc(CNS(=O)(=O)N(CCOCCOCCOCCN([C@@H](CC(=O)O)C(=O)O)S(=O)(=O)NCc3ccc(OC(=O)c4ccc(NC(=N)N)cc4)cc3)[C@@H](CC(=O)O)C(=O)O)cc2)cc1 [3-(b), (2S,163)-3,15-bis(N-(4-((4-guanidinobenzoyl)oxy)benzyl)sulfamoyl)-6,9,12-trioxa-3,15-diazaheptadecane-1,2,16,17-tetracarboxylic acid trifluoroacetate]",≥ 50,≥ 50,≥ 50,–,≥ 50,≥ 50,≥ 50,≥ 130,–,–,–,–,–
"N=C(N)Nc1ccc(C(=O)Oc2ccc(CNS(=O)(=O)N(CCOCCOCCOCCOCCOCCN([C@@H](CC(=O)O)C(=O)O)S(=O)(=O)NCc3ccc(OC(=O)c4ccc(NC(=N)N)cc4)cc3)[C@@H](CC(=O)O)C(=O)O)cc2)cc1 [5-(b), (2S,22S)-3,21-bis(N-(4-((4-guanidinobenzoyl)oxy)benzyl)sulfamoyl)-6,9,12,15,18-pentaoxa-3,21-diazatricosane-1,2,22,23-tetracarboxylic acid trifluoroacetate]",≥ 50,≥ 50,≥ 50,–,–,–,–,≥ 130,≥ 50,≥ 50,–,–,–
"N=C(N)Nc1ccc(C(=O)Oc2ccc(CNS(=O)(=O)N(CCOCCOCCOCCOCCOCCOCCN([C@@H](CC(=O)O)C(=O)O)S(=O)(=O)NCc3ccc(OC(=O)c4ccc(NC(=N)N)cc4)cc3)[C@@H](CC(=O)O)C(=O)O)cc2)cc1 [6-(b), (2S,25S)-3,24-bis(N-(4-((4-guanidinobenzoyl)oxy)benzyl)sulfamoyl)-6,9,12,15,18,21-hexaoxa-3,24-diazahexacosane-1,2,25,26-tetracarboxylic acid trifluoroacetate]",–,≥ 50,≥ 50,–,–,–,–,≥ 130,≥ 50,≥ 50,–,–,–
"N=C(N)Nc1ccc(C(=O)Oc2ccc(CNS(=O)(=O)N(CCCCN([C@@H](CC(=O)O)C(=O)O)S(=O)(=O)NCc3ccc(OC(=O)c4ccc(NC(=N)N)cc4)cc3)[C@@H](CC(=O)O)C(=O)O)cc2)cc1 [8-(c), (2S,2′S)-2,2′-(butane-1,4-diylbis((N-(4-((4-guanidinobenzoyl)oxy)benzyl)sulfamoyl)azanediyl))disuccinic acid hydrochloride]",–,–,–,–,–,–,–,≥ 130,–,–,–,–,–
"N=C(N)Nc1ccc(C(=O)Oc2ccc(COC(=O)N(CC(=O)N[C@@H](CC(=O)O)C(=O)NCCOCCOCCOCCOCCNC(=O)[C@H](CC(=O)O)NC(=O)CN(Cc3cccc(C(=O)O)c3)C(=O)OCc3ccc(OC(=O)c4ccc(NC(=N)N)cc4)cc3)Cc3cccc(C(=O)O)c3)cc2)cc1 [14-(b), (3S,22S)-3,22-bis(2-((3-carboxybenzyl) (((4-((4-guanidinobenzoyl)oxy)benzyl)oxy)carbonyl)amino)acetamido)-4,21-dioxo-8,1,14,17-tetraoxa-5,20-diazatetracosane-1,24-dioic acid trifluoroacetate]",≥ 50,≥ 50,≥ 50,–,–,≥ 50,≥ 50,–,–,–,≥ 4,≥ 130,–
"N=C(N)Nc1ccc2c(c1)CCCOc1c(cccc1C(=O)N(CCOCCOCCN(C(=O)c1cccc3c1OCCCc1cc(NC(=N)N)ccc1C(=O)O3)[C@@H](CC(=O)O)C(=O)O)[C@@H](CC(=O)O)C(=O)O)OC2=O [20-(b), (2S,13S)-3,12-bis(10-guanidino-13-oxo-6,7,8,13-tetrahydrodibenzo[b,f][1,4]dioxecin-4-carbonyl)-6,9-dioxa-3,12-diazatetradecane-1,2,13,14-tetracarboxylic acid trifluoroacetate]",≥ 50,≥ 50,≥ 50,–,≥ 50,≥ 50,≥ 50,≥ 130,–,–,–,–,≥ 4
"N=C(N)Nc1ccc2c(c1)CCCOc1c(cccc1C(=O)N(CCOCCOCCN(C(=O)c1cccc3c1OCCCc1cc(NC(=N)N)ccc1C(=O)O3)[C@H](CC(=O)O)C(=O)O)[C@H](CC(=O)O)C(=O)O)OC2=O [21-(b), (2R,13R)-3,12-bis(10-guanidino-13-oxo-6,7,8,13-tetrahydrodibenzo[b,f][1,4]dioxecin-4-carbonyl)-6,9-dioxa-3,12-diazatetradecane-1,2,13,14-tetracarboxylic acid trifluoroacetate]",–,≥ 50,≥ 50,–,≥ 50,≥ 50,≥ 50,≥ 130,–,–,–,–,≥ 4
